{
  "source": "patent US7781580B2",
  "about": "“Stilbene derivatives as new cancer therapeutic agents” (Virginia Commonwealth University, priority 2007, dated 2010)",
  "key": {"[1]": {"test_system": "SNU423 hepatocellular carcinoma cells", "assay": "Alamar Blue cell growth inhibition, SNU423", "format": "cell-based", "details": "SNU423", "method": "Cell growth was measured by Alamar Blue™ staining and the OD absorbance at 570 and 600 nm was determined by a microplate reader. The percentage of cell growth inhibition was calculated and compared with the control cells that were treated with 0.1% DMSO, the vehicle for the stilbene compounds.\nVarious cancer cell lines were grown in 96-well plates for drug sensitivity assays. Once cells achieved 50% confluence, the incubation media was changed to the same cell growth media with different concentrations of the tested compounds or vehicle alone. Cells were then incubated for 48 hours before the cell growth inhibition study. To determine the degree of cell growth inhibition, 1/10 volume of Alamar Blue™ solution was added to each well and optical density (OD) at 570 and 600 nm was determined. The percentage of growth inhibition was calculated according to the manufacturer's formula as follows: The percentage of growth is [(117216×A570)−(80586×A600)]/[(117216×A^o570)−(80586×A^o600)]×100. In this formula, A570 is the absorbance of the treated samples at 570 nm; A600 is the absorbance of the treated samples at 600 nm; A^o570 is the absorbance of the […] samples at 570 nm; and A^o600 is the absorbance of the untreated samples at 600 nm. The two constants, 117216 and 80586, are the extinction coefficients of Alamar Blue™ at 570 and 600 nm respectively. Each concentration was repeated in triplicate to minimize the error.\nWe first tested the cytotoxic effect of various stilbene derivatives for their in vitro efficacy of suppressing tumor cell proliferation. Cells were first plated in 96-well plates at 50% confluence and treated with 0, 0.01, 0.03, 0.1, 0.3, 1.0, 3.0, 10 μM concentrations of stilbene derivatives for 48 hours in triplicate. Alamar Blue™ reagent was added into each well at 1/10 volume and incubated for 2 hours before quantification of the absorbance at 570 and 600 nm."}, "[2]": {"test_system": "tubulin (colchicine site)", "assay": "[3H]-colchicine competition for binding tubulin", "details": "20 min, 37° C.", "method": "FIG. 3a-d. […] (a) Effect of stilbene 4a. Pure tubulin was incubated with various concentrations of stilbene 4a, 10 μM nocodazole, and 10 μM paclitaxel in the polymerization buffer. The OD at 340 nm was monitored every minute by SpectraMAX 250 and plotted against time. (b) Effect of stilbene 4c. (c) Comparison of same concentrations of stilbenes 4a, 4a trans, 4c and 4c trans with control. […] The radioactivity of the tubulin was counted. […] All experiments were done in triplicates.\nTubulin retained in the Microcon was washed three times with PBS. The radioactivity of the final concentrated tubulin was determined by a scintillation counter."}, "[3]": {"test_system": "c-kit-positive progenitor cells (engraftment)", "assay": "bone marrow transplantation of stilbene-treated progenitor cells", "format": "in vivo, mice", "details": "cells incubated at 0.1 or 0.5 μM for 16 hours", "method": "FIG. 16. (a) Effect of stilbenes in normal bone marrow progenitor cells. c-kit-positive bone marrow mononuclear cells were isolated for incubation with stilbenes 4a or 4c at 0.1 or 0.5 […] for 16 hours. Cells were harvested for fixation and PI staining. Cell cycle analysis and quantification of the subG0/1 population were analyzed by FACScan flow cytometry. The percentages of the apoptotic population were indicated. Shown are the representatives of two independent experiments. (b) Effect of stilbenes in HL60 cells as positive control. HL60 cells were treated with stilbenes 4a or 4c in the same medium as the positive control. (c) Colony forming assay of the stilbene-treated c-kit-positive cells. […] Cells were incubated for 14 days and the grossly visible colonies were counted. […] Mice were monitored for survival and lineage-specific donor engraftment by flow cytometry analysis of peripheral blood. […]\nC57BL/6J (H2b, CD45.2) mice served as bone marrow donors and were between 6-10 weeks of age. […] Peripheral blood engraftment in recipient mice was assessed by flow cytometry analysis for CD3+ (145-2C11; BD Biosciences, San Jose, Calif.) T-cells, B220+ (RA3-6B2) B-cells, Mac1+ (M1/70.15) monocytes, and Gr1+ (8C5) granulocytes and distinguished between donor versus recipient with anti-CD45.1 (A20) and anti-CD45.2 (104) monoclonal antibodies."}, "[4]": {"test_system": "UCI101 ovarian cancer cells", "assay": "Western blot of signal transduction events, UCI101", "format": "cell-based", "method": "All these agents are microtubule interfering agents but with different binding sites. Cells were harvested at 0, 4, 8, 16 and 36 hours after drug treatment for Western blot analysis. […] Phosphorylation of both Cdc25C and Cdc2 disappeared after 16 hours and slightly recovered at 36 hours. […] Akt phosphorylation decreased after 16 hours of treatment.\nIn order to understand the mechanism of resistance of stilbenes, various signal transduction pathways were investigated to examine how cells respond to stilbene treatment. UCI101 ovarian cancer cells were treated with stilbenes 4a, 4c or paclitaxel (Taxol) at 0.1 μM for 0, 4, 8, 16 and 36 hours. Cells were harvested for Western blotting. Changes in the kinases involved in cell cycle progression from G2-M transition were first determined in Cdc2, Cdc25c, and mitotic spindle check point regulator BubR1. […] 36 hours after treatment, rephosphorylation of Cdc2 was observed. […] The higher molecular weight isomer of Cdc25c, the mitotic form, increased at 16 and 36 hours. […] A similar study was then performed with other microtubule interfering agents such as combretastatin A4, 13a and vincristine for comparison. A similar trend was observed among these three microtubule interfering agents (FIG. 18)."}, "[5]": {"test_system": "c-kit positive marrow progenitor cells", "assay": "bone marrow c-kit-positive progenitor cells: cell cycle and colony forming assay", "format": "cell-based", "method": "FIG. 16. (a) Effect of stilbenes in normal bone marrow progenitor cells. c-kit-positive bone marrow mononuclear cells were isolated for incubation with stilbenes 4a or 4c at 0.1 or 0.5 […] for 16 hours. Cells were harvested for fixation and PI staining. Cell cycle analysis and quantification of the subG0/1 population were analyzed by FACScan flow cytometry. The percentages of the apoptotic population were indicated. Shown are the representatives of two independent experiments. (b) Effect of stilbenes in HL60 cells as positive control. HL60 cells were treated with stilbenes 4a or 4c in the same medium as the positive control. (c) Colony forming assay of the stilbene-treated c-kit-positive cells. A fraction of the cells in (a) were diluted and plated on methylcellulose medium at various densities. Cells were incubated for 14 days and the grossly visible colonies were counted. […] Isolated bone marrow c-kit-positive progenitor cells were incubated with DMSO or stilbenes 4a or 4c at 0.1 or 0.5 μM for 16 hours and injected into tail veins of CD45 congenic mice lethally irradiated with 1200 cGy. Mice were monitored for survival and lineage-specific donor engraftment by flow cytometry analysis of peripheral blood. The percentage of donor cells in T, B, and granulocytic series of the recipients were studied at 7 and 14 weeks after transplantation. Stilbene treated c-Kit progenitor cells had the same percentage as the DMSO treated control in all series.\nMouse bone marrow was harvested from femur and tibia of […], subjected to red blood cell lysis, and labeled with anti-c-kit (3C11; CALTAG Laboratories, Burlingame, Calif.) and streptavidin-conjugated microbeads for MACS separation (Miltenyi Biotech, Auburn, Calif.). The c-kit positive marrow progenitor cells were incubated in Iscove's Modified Eagle's Media supplemented with 30% fetal bovine serum, erythropoietin, stem cell factor and interleukin-3 with or without stilbenes 4a or 4c. The ability of long-term proliferation of the c-kit-positive cells was evaluated with colony forming assay. Cells were first treated with DMSO, stilbenes 4a or 4c for 5 h and a fraction of the cells (4000 cells) were plated in the same enriched culture media with methylcellulose for colony forming assays. The grossly visible colonies were counted after 14 days of incubation."}, "Tubulin (>99% pure)": {"test_system": "Tubulin (>99% pure)", "assay": "tubulin polymerization assay (OD 340 nm)", "format": "biochemical", "details": "OD340 nm; nocodazole and paclitaxel 10 μM", "method": "FIG. 3a-d. Stilbenes inhibit tubulin polymerization. (a) Effect of stilbene 4a. Pure tubulin was incubated with various concentrations of stilbene 4a, 10 μM nocodazole, and 10 μM paclitaxel in the polymerization buffer. The OD at 340 nm was monitored every minute by SpectraMAX 250 and plotted against time. (b) Effect of stilbene 4c. (c) Comparison of same concentrations of stilbenes 4a, 4a trans, 4c and 4c trans with control. […] Tubulin was incubated with [^3H]-colchicine and various concentrations of different stilbenes for 20 min. Tubulin was then separated from the unbound [^3H]-colchicine by Microcon-30 and washed three times with PBS. The radioactivity of the tubulin was counted. […] All experiments were done in triplicates.\nThe tubulin polymerization assay kit was purchased from Cytoskeleton (Denver, Colo.). Tubulin (>99% pure) was mixed with general tubulin buffer (GTB, 80 mM PIPES pH 6.9, 2 mM MgCl2, 0.5 mM EGTA, and 1 mM GTP) in a 96-well plate at 37° C. Absorbance at 340 nm was measured every 1 min for 60 min by SpectraMAX 250 (Molecular Devices, Sunnyville, Calif.). Analysis of the results was performed by SoftMAX Pro version 1.2.0 from the same company."}},
  "data": [
    {"smiles": "COc1cc(/C=C\\c2ccc(OC)c(O)c2)cc(OC)c1", "note": "[4c, (Z)5-[2-(3,5-Dimethoxy-phenyl)-vinyl]-2-methoxy-phenol]", "values": [
      {"measurement": "relative potency", "setting": "[1]", "result": "much more potent than the trans counterparts"},
      {"measurement": "competition with [3H]-colchicine for tubulin", "setting": "[2]", "result": "dose-dependent suppression of tubulin-colchicine interaction"},
      {"measurement": "radioprotection of lethally irradiated mice by treated progenitor cells", "setting": "[3]", "result": "all mice were rescued from lethal irradiation"},
      {"measurement": "phosphorylation of Stat3", "setting": "[4]; 0.1 μM", "result": "transient increase in phosphorylation at 4 and 8 hours"},
      {"measurement": "phosphorylation of Cdc2 at Tyr15", "setting": "[4]; 0.1 μM, 16 hours", "result": "decreased dramatically"},
      {"measurement": "phosphorylation of Chk1", "setting": "[4]; 36 hours", "result": "do not cause more phosphorylation of Chk1"},
      {"measurement": "cell cycle of marrow progenitor cells at 0.1 μM", "setting": "[5]", "result": "not affected"},
      {"measurement": "toxicity to normal bone marrow progenitor cells versus leukemia cells", "setting": "[5]", "result": "much less toxic to normal bone marrow progenitor cells"},
      {"measurement": "cell cycle of marrow progenitor cells at 0.5 μM", "setting": "[5]; BALB/c, mouse, 16 h, 0.5 μM", "result": "small increase in subG0/1 and G2 population"},
      {"measurement": "effect on tubulin polymerization", "setting": "Tubulin (>99% pure)", "result": "suppressed tubulin polymerization in a dose-dependent manner but less potent than stilbene 4a"}
    ]}
  ]
}
